Test results: patent US10383948B2, “Anti-cMet antibody drug conjugates and methods for their use” (AbbVie Inc., priority 2016, dated 2019)

Experiments:
[1] = test system: NCI-H820; assay: Cytotoxicity assay (CellTiter-Glo, 6 days); type: cell-based, human; settings: NCI-H820, without MET amplification; FIG. 4C
Method: (§1) Tumor cells were plated at 2000-5000 cells/well in 180 μL growth medium containing 10% FBS in 96-well plates, and cultured at 37° C. in a humidified incubator with 5% C02. The following day, titrations of antibodies or ADCs in 20 μL were added and cells were incubated for 6 days. Cell viability was determined using a CellTiter-Glo Luminescent Cell Viability Assay (Promega) according to the manufacturer's instructions.
as §1, with “of” for “of antibodies or”

[2] = test system: Hs746T ABT-700R xenografts; assay: ABT-700-refractory xenograft efficacy; type: in vivo, mice; settings: Hs746T ABT-700R xenografts; FIG. 12B
[3] = test system: SNU-5; assay: Cytotoxicity assay (CellTiter-Glo, 6 days); type: cell-based, human; settings: MET-amplified SNU-5 gastric cancer cells; FIG. 4
Method: as §1, with “instructions. A non-binding, irrelevant negative control ADC conjugated to MMAE was also included in all assays to confirm that cell killing was antigen dependent.” for “instructions.”

[4] = test system: Hs746T gastric cancer xenografts; assay: Hs746T xenograft efficacy; settings: parental Hs746T xenografts, initial treatment; FIG. 12A
Method: Female SCID, SCID-Beige and nude mice were obtained from Charles River (Wilmington, Mass.) and housed at ten mice per cage. The body weight upon arrival was 20-22 g. Food and water were available ad libitum. Mice were acclimated to the animal facilities for a period of at least one week prior to commencement of experiments. Animals were tested in the light phase of a 12-hr light: 12-hr dark schedule (lights on at 06:00 hours).
Each experimental group included 8-10 animals.
Tumor volumes are depicted as mean±S.E.M.

[5] = test system: Hs746T; assay: Cytotoxicity assay (CellTiter-Glo, 6 days); type: cell-based, human; settings: MET-amplified Hs746T gastric cancer cells; FIG. 4
Method: as §1, with “instructions. A non-binding, irrelevant negative control ADC conjugated to MMAE was also included in all assays to confirm that cell killing was antigen dependent.” for “instructions.”
as §1, with “of” for “of antibodies or”, “instructions. A non-binding, irrelevant negative control ADC conjugated to MMAE was also included in all assays to confirm that cell killing was antigen-dependent.” for “instructions.”

[6] = test system: NCI-H441; assay: Cytotoxicity assay (CellTiter-Glo, 6 days); type: cell-based, human; settings: NCI-H441, without MET amplification; FIG. 4D
Method: as §1, with “instructions. A non-binding, irrelevant negative control ADC conjugated to MMAE was also included in all assays to confirm that cell killing was antigen dependent.” for “instructions.”
as §1, with “of” for “of antibodies or”, “instructions. A non-binding, irrelevant negative control ADC conjugated to MMAE was also included in all assays to confirm that cell killing was antigen-dependent.” for “instructions.”

[7] = patients; cited from earlier work

| Substance | inhibition of proliferation [1] | tumor response [2] | inhibition of proliferation [3] | tumor response [4] | inhibition of proliferation [5] | inhibition of proliferation [6] | dose not tolerated [7] [mg/kg] | dose tolerated [7] [mg/kg] |
| --- | --- | --- | --- | --- | --- | --- | --- | --- |
| ABT-700: humanized recombinant IgG1 kappa anti-cMet antibody, humanized version of mouse monoclonal antibody 224G11 | not cell lines without MET amplification | refractory to ABT-700 treatment with quick tumor outgrowth on therapy | inhibited proliferation of cells with MET amplification | tumor stasis followed by relapse | inhibited proliferation of cells with MET amplification | not cell lines without MET amplification |  |  |
| DCDT2980S: an MMAE ADC targeting CD22 |  |  |  |  |  |  | 3.2 | 2.4 |
| brentuximab vedotin: Seattle Genetics MMAE ADC with an approximate DAR of 4 |  |  |  |  |  |  | 2.7 |  |
